One data set concerns awake rats. In words: Telemetry studies of heart rate in awake rats. The class given is in vivo, Rats (Sprague Dawley). As to the method:
Rats (Sprague Dawley) weighing 300–400 gms were purchased from Simonsen laboratories. CVT-3619 was dissolved in DMSO and further diluted in saline. CVT-510 was dissolved in saline. Ketamine was purchased from Fort Dodge Animal Health, Xylazine from Bayer and Acepromazine Maleate from Fermenta Animal Health Co. Metoprolol and propranolol were purchased from SIGMA. Esmolol was obtained from a local pharmacy.
For these studies, rats were instrumented with radiotelemetered transmitters (Data Sciences) at least 3 weeks prior to experimentation. Animals were anesthetized by peritoneal injection of a “cocktail” (1 ml/kg) containing Ketamine (75 mg/ml), Xylazine (5 mg/ml), and Acepromazine (1 mg/ml). After 20–30 minutes of induction of anesthesia, a midline laparotomy was performed. The transmitter for recordings of ECG, blood pressure and body temperature was placed in the abdominal cavity, and secured to the abdominal muscles. Two electrocardiographic leads were tunneled through the subcutaneous—one toward the upper left shoulder and the other to the right thigh, and secured with sutures. A fluid filled sensor catheter was inserted in the descending aorta above the iliac bifurcation for measurement of blood pressure. The tip of the telemetry catheter was located in the abdominal aorta just caudal to the renal arteries. Once the transmitter and leads were in place and determined to be functioning properly, the abdominal wall was sutured. After recovery from anesthesia, the rats were housed individually in cages placed on their respective receivers. The ECG, blood pressure and temperature were recorded and heart rate measured by a Dataquest ART Gold system (Version 2.2; Data Sciences Intl). The system consisted of a transmitter, i.e., biopotential sensor (Model TL11M2-C50-PXT), receivers (Model RPC-1), a consolidation matrix (BCM 100), a personal computer (Compaq DeskPro Series 3574) and Dataquest 4 software. Heart rate, blood pressure and temperature were measured at 5-minute intervals. Each recording lasted 10 seconds and all cardiac cycles within this period were averaged. Animals were given various drugs in a randomized manner after recording the baseline data for at least two hours.
A subgroup of animals was implanted with osmotic pumps containing CVT-510 for combination experiments. […]
The slowing of heart rate caused by each treatment was quantified by determining the area under the curve (AUC), using the trapezoidal method for calculations. Data used for analysis was the area under/over the curve calculated using change form baseline data (untreated animals). The data was analyzed for the magnitude as well as the duration of bradycardia caused by each treatment. […]

The next data set relates to anesthetized guinea pigs. In words: PR interval (AV nodal conduction) in anesthetized, paced guinea pigs. The class given is in vivo. Conditions: metoprolol 0.1 mg/kg iv bolus. From the text: Male guinea pigs weighing 400–450 gm were obtained from Simonsen labs and housed in the institutional laboratory animal facility. Animals were anesthetized with isoflurane in the anesthetizing chamber. After determining (by toe pinch) that the animal is adequately anesthetized, the animals was intubated with an endotracheal tube and ventilated with isoflurane and oxygen mixture using anesthesia workstation. Using sterile equipment and aseptic technique, the right carotid artery was exposed and a catheter inserted for recording of blood pressure (BP). A quadripolar electrode catheter was introduced via the right jugular vein and positioned in the right atrium and ventricle for atrial and ventricular pacing. The hearts were paced at a constant rate (330–360 bpm) to eliminate the effect of heart rate variability between animals. Another catheter was inserted into the left jugular vein and positioned in the right atrium for the administration of drugs and saline. Subcutaneous needles were used as standard electrocardiographic leads to record the electrocardiogram (ECG). After completion of surgery and instrumentation, a 20 min equilibration period was allowed before beginning the experimental protocol. […] When the two agents were given in combination the PR interval was increased up to 15 msec. […] Esmolol was administered at three different infusion rates. […]

The conditions of data set [1]: cited from earlier work.

Regarding `O[C@@H]1[C@@H](CSc2ccccc2F)OC(n2cnc3c(N[C@@H]4CCC[C@H]4O)ncnc32)[C@@H]1O` (stereo partly drawn) [CVT-3619, 2-{6-[((1R,2R)-2-hydroxycyclopentyl)amino]purin-9-yl}(4S,5S,3R)-5-[(2-fluorophenylthio)methyl]oxolane-3,4-diol], the “effect on heart rate (FIG. 1)” value with awake rats (CVT-3619 0.5 mg/kg ip alone) is “minimal effect on heart rate”.
`COC(=O)CCc1ccc(OCC(O)CNC(C)C)cc1` (stereo not shown) [esmolol, reference compound]: the “effect on heart rate (FIG. 3)” value with awake rats (esmolol 10 mg/kg ip alone, heart rate increase caused by handling) is reported as “only slightly reduces the increase in heart rate”.
As for `COCCc1ccc(OCC(O)CNC(C)C)cc1` (stereo not shown) [metoprolol, reference compound], the “increase of PR interval (FIG. 9)” value in the data set with anesthetized guinea pigs turned out to be 5 ms.
What is called half-life is the time needed for the level to fall by half in the phase considered. For `Nc1ncnc2c1ncn2[C@@H]1O[C@H](CO)[C@@H](O)[C@H]1O` [Adenosine], in data set [1], the half-life is roughly 10 s.

Source of the values: patent US7005425B2, “Method for treating arrhythmias” (CV Therapeutics, Inc., priority 2002, dated 2006).
